# Experimental data as given in PubChem BioAssay AID192 (DTP/NCI, 2004).
# Values joined by “and” are separate entries in the source; they are usually repeats but may differ in a detail not shown here. Identical values can stand only once. Inconclusive results and toxic doses are left out.
# System: BDF1 mice, B16 melanoma ip, median survival T/C
# Experiment: NCI In Vivo Anticancer Drug Screen. Data for tumor model B16 Melanoma (intraperitoneal) in B6D2F1 (BDF1) mice
# Conditions: endpoint: median survival time, higher = longer survival
# Procedure, shortened: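 The ratio T/C compares compound-treated mice with vehicle-treated controls, using survival or tumor size as the endpoint in a transplantable tumor model.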
# [1] = dose: 6.25 mg/kg/injection, schedule: Q01DX009 (ip), vehicle: saline
# [2] = dose: 12.5 mg/kg/injection, schedule: Q01DX009 (ip), vehicle: saline
# [3] = dose: 25.0 mg/kg/injection, schedule: Q01DX009 (ip), vehicle: saline
# [4] = dose: 50.0 mg/kg/injection, schedule: Q01DX009 (ip), vehicle: Klucel (hydroxypropylcellulose) (HPC)
# [5] = dose: 100.0 mg/kg/injection, schedule: Q01DX009 (ip), vehicle: Klucel (hydroxypropylcellulose) (HPC)
# [6] = dose: 200.0 mg/kg/injection, schedule: Q01DX009 (ip), vehicle: Klucel (hydroxypropylcellulose) (HPC)
# [7] = dose: 400.0 mg/kg/injection, schedule: Q01DX009 (ip), vehicle: Klucel (hydroxypropylcellulose) (HPC)
compound,measurement,setting,value
Cc1ccc(S(=O)(=O)N2CCCC(=O)c3ccc(Cl)cc32)cc1,T/C,"dose: 100.0 mg/kg/injection, schedule: Q04DX003 (ip), vehicle: Klucel (hydroxypropylcellulose) (HPC)",103 % of control
same,T/C,"dose: 200.0 mg/kg/injection, schedule: Q04DX003 (ip), vehicle: Klucel (hydroxypropylcellulose) (HPC)",99 % of control
same,T/C,"dose: 400.0 mg/kg/injection, schedule: Q04DX003 (ip), vehicle: Klucel (hydroxypropylcellulose) (HPC)",99 % of control
COc1ccc2c(ccc[n+]2C)c1,T/C,[1],93 % of control
same,T/C,[2],90 % of control
same,T/C,"dose: 12.5 mg/kg/injection, schedule: Q04DX003 (ip), vehicle: saline",100 % of control
same,T/C,[3],95 % of control
same,T/C,"dose: 25.0 mg/kg/injection, schedule: Q04DX003 (ip), vehicle: saline",100 % of control
same,T/C,"dose: 50.0 mg/kg/injection, schedule: Q04DX003 (ip), vehicle: saline",104 % of control
NC(Cc1ccc(N(CCCl)CCCl)cc1)C(=O)O (stereo not given),T/C,"dose: 2.0 mg/kg/injection, schedule: Q01DX009 (ip), vehicle: saline",188 % of control
same,T/C,"dose: 2.0 mg/kg/injection, schedule: Q01DX009 (ip), vehicle: water",118 % of control
same,T/C,"dose: 4.0 mg/kg/injection, schedule: Q01DX009 (ip), vehicle: water",272 % of control
same,T/C,"dose: 8.0 mg/kg/injection, schedule: Q01DX009 (ip), vehicle: water",172 % of control
N#Cc1ccc(NC(=O)Nc2nccs2)cc1,T/C,"dose: 12.5 mg/kg/injection, schedule: Q01DX009 (ip), vehicle: distilled water + Tween-80",115 % of control
CN(CO)c1nc(N(C)CO)nc(N(C)CO)n1,T/C,[1],111 % of control
same,T/C,[2],112 % of control and 118 % of control
same,T/C,[3],110 % of control and 124 % of control
same,T/C,"dose: 50.0 mg/kg/injection, schedule: Q01DX009 (ip), vehicle: saline",120 % of control
N#CC(=C1C=CC(=NO)C=C1)c1ccccc1,T/C,"dose: 12.5 mg/kg/injection, schedule: Q01DX009 (ip), vehicle: Klucel (hydroxypropylcellulose) (HPC)",100 % of control
same,T/C,[4],112 % of control
same,T/C,[5],103 % of control
CC1(C)CC(O)(C(Cl)c2ccccc2)C(=O)c2ccccc21 (stereo not given),T/C,[4],103 % of control
same,T/C,[5],95 % of control
same,T/C,[6],94 % of control
same,T/C,[7],90 % of control
Oc1ccc(C2CCc3ccccc32)cc1 (stereo not given),T/C,[5],96 % of control
same,T/C,[6],96 % of control
same,T/C,[7],100 % of control
C[n+]1c(/C=C/c2ccc(O)c3ncccc23)[se]c2ccccc21,T/C,"dose: 0.38 mg/kg/injection, schedule: Q01DX009 (ip), vehicle: saline",102 % of control
same,T/C,"dose: 0.75 mg/kg/injection, schedule: Q01DX009 (ip), vehicle: saline",109 % of control
same,T/C,"dose: 1.5 mg/kg/injection, schedule: Q01DX009 (ip), vehicle: saline",106 % of control
same,T/C,"dose: 3.0 mg/kg/injection, schedule: Q01DX009 (ip), vehicle: saline",109 % of control and 115 % of control
same,T/C,"dose: 6.0 mg/kg/injection, schedule: Q01DX009 (ip), vehicle: saline",106 % of control and 124 % of control
same,T/C,"dose: 12.0 mg/kg/injection, schedule: Q01DX009 (ip), vehicle: saline",115 % of control
same,T/C,"dose: 24.0 mg/kg/injection, schedule: Q01DX009 (ip), vehicle: saline",122 % of control
CC(=O)c1ccccc1C,T/C,"dose: 12.5 mg/kg/injection, schedule: Q01DX009 (ip), vehicle: saline with Tween-80",102 % of control
same,T/C,"dose: 25.0 mg/kg/injection, schedule: Q01DX009 (ip), vehicle: saline with Tween-80",108 % of control
same,T/C,"dose: 50.0 mg/kg/injection, schedule: Q01DX009 (ip), vehicle: saline with Tween-80",92 % of control and 123 % of control
CC(=O)CC(=O)Nc1cccc(O)c1,T/C,[5],92 % of control
same,T/C,[6],92 % of control
same,T/C,[7],86 % of control
Nc1nc(SCc2ccccc2)c2ncn(C3CC(O)C(CO)O3)c2n1 (stereo not given),T/C,"dose: 4.25 mg/kg/injection, schedule: Q01DX009 (ip), vehicle: saline",111 % of control
same,T/C,"dose: 8.5 mg/kg/injection, schedule: Q01DX009 (ip), vehicle: saline",113 % of control
same,T/C,"dose: 17.0 mg/kg/injection, schedule: Q01DX009 (ip), vehicle: saline",94 % of control
same,T/C,"dose: 34.0 mg/kg/injection, schedule: Q01DX009 (ip), vehicle: saline",93 % of control
COc1ccc(CC2C(=O)NC(C)C(=O)N(C)C3Cc4ccc(cc4)Oc4cc(ccc4O)CC(C(=O)NC(C)C(=O)NC(C)C(=O)N2C)N(C)C3=O)cc1 (stereo not given),T/C,"dose: 0.25 mg/kg/injection, schedule: Q01DX009 (ip), vehicle: saline with Tween-80",117 % of control
same,T/C,"dose: 0.5 mg/kg/injection, schedule: Q01DX009 (ip), vehicle: saline with Tween-80",122 % of control
same,T/C,"dose: 2.0 mg/kg/injection, schedule: Q01DX009 (ip), vehicle: saline with Tween-80",152 % of control
same,T/C,"dose: 4.0 mg/kg/injection, schedule: Q01DX009 (ip), vehicle: saline with Tween-80",175 % of control
same,T/C,"dose: 8.0 mg/kg/injection, schedule: Q01DX009 (ip), vehicle: saline with Tween-80",154 % of control
